Source: article PMC12507022, “Widespread distribution of BpfA-mediated bisphenol F degradation among members of the Pseudomonadota and Actinomycetota” (The ISME Journal, 2025)

Assays:
BpfA = tested on: T1, BpfA; experiment: HPLC, Michaelis-Menten fit; assay type: biochemical, Microbacterium sp. F2; conditions: 20 mM Tris-HCl pH 8.0, 30 °C, O2 as electron acceptor
T1 construct: recombinant from pET29a(+) (NdeI/XhoI) in E. coli BL21(DE3), Ni-NTA purified; contains flavin

FBO = tested on: T2, FBO; experiment: HPLC, Michaelis-Menten fit; assay type: biochemical, Sphingobium sp. W15; conditions: 20 mM Tris-HCl pH 8.0, 30 °C, 0.2 mM FAD added
T2 construct: synthetic gene, expressed and purified like BpfA (E. coli, Ni-NTA)

SMILES	Km (BpfA)	Km (FBO)
COCc1ccc(O)cc1 [4MOP]	297 ± 5 µM	
CCCc1ccc(O)c(OC)c1 [4PG]	25.4 ± 2.9 µM	170 ± 5.9 µM
Oc1ccc(Cc2ccc(O)cc2)cc1 [BPF]	12.4 ± 1.9 µM	167 ± 12.8 µM
COc1cc(CO)ccc1O [VA]	266 ± 10.3 µM	183 ± 9.3 µM
